Reference: patent US11161837B2, “Benzofuran derivatives for the treatment of hepatitis C” (BRISTOL-MYERS SQUIBB COMPANY, priority 2016, dated 2021)

Tests used:
[1] = biological target: T1, NS5B proteins of HCV genotype 1b (Con1) (Hepatitis C virus genotype 1b, UniProt Q9WMX2); experiment: HCV NS5B RdRp enzyme assay; assay type: biochemical; conditions: 1b enzyme
T1 construct: Each untagged protein was expressed with an 18 amino acid C-terminal truncation to enhance the solubility; made in house; host or cells: E. coli BL21(DE3), pET21a
Procedure: HCVNS5B RdRp Cloning, Expression, and Purification.
The cDNA encoding NS5B proteins of HCV genotype 1b (Con1), a genotype 1b variant with amino acid 316 mutated from cysteine to asparagine, and genotype 2a (JFH-1), were cloned into the pET21a expression vector. Each untagged protein was expressed with an 18 amino acid C-terminal truncation to enhance the solubility. The E. coli competent cell line BL21(DE3) was used for expression of the protein. Cultures were grown at 37° C. for ˜4 hours until the cultures reached an optical density of 2.0 at 600 nm. The cultures were cooled to 20° C. and induced with 1 mM IPTG. Fresh ampicillin was added to a final concentration of 50 μg/mL and the cells were grown overnight at 20° C.
Cell pellets (3 L) were lysed for purification to yield 15-24 mgs of purified NS5B. The lysis buffer consisted of 20 mM Tris-HCl, pH 7.4, 500 mM NaCl, 0.5% triton X-100, 1 mM DTT, 1 mM EDTA, 20% glycerol, 0.5 mg/mL lysozyme, 10 mM MgCl2, 15 ug/mL deoxyribonuclease I, and Complete TM protease inhibitor tablets (Roche). After addition of the lysis buffer, frozen cell pellets were resuspended using a tissue homogenizer. To reduce the viscosity of the sample, aliquots of the lysate were sonicated on ice using a microtip attached to a Branson sonicator. The sonicated lysate was centrifuged at 100,000×g for 30 minutes at 4° C. and filtered through a 0.2 μm filter unit (Corning).
The protein was purified using two sequential chromatography steps: Heparin sepharose CL-6B and polyU sepharose 4B. The chromatography buffers were identical to the lysis buffer but contained no lysozyme, deoxyribonuclease I, MgCl2 or protease inhibitor and the NaCl concentration of the buffer was adjusted according to the requirements for charging the protein onto the column. Each column was eluted with a NaCl gradient which varied in length from 5-50 column volumes depending on the column type. After the final chromatography step, the resulting purity of the enzyme is >90% based on SDS-PAGE analysis. The enzyme was aliquoted and stored at −80° C.
HCVNS5B RdRp Enzyme Assay.
An on-bead solid phase homogeneous assay was used in a 384-well format to assess NS5B inhibitors (WangY-K, Rigat K, Roberts S, and Gao M (2006) Anal Biochem, 359: 106-111). The biotinylated oligo dT12 primer was captured on streptavidin-coupled imaging beads (GE, RPNQ0261) by mixing primer and beads in 1× buffer and incubating at room temperature for three hours. Unbound primer was removed after centrifugation. The primer-bound beads were resuspended in 3× reaction mix (20 mM Hepes buffer, pH 7.5, dT primer coupled beads, poly A template, ^3H-UTP, and RNAse inhibitor (Promega N2515)). Compounds were serially diluted 1:3 in DMSO and aliquoted into assay plates. Equal volumes (10 μL) of water, 3× reaction mix, and enzyme in 3× assay buffer (60 mM Hepes buffer, pH 7.5, 7.5 mM MgCl2, 7.5 mM KCl, 3 mM DTT, 0.03 mg/mL BSA, 6% glycerol) were added to the diluted compound on the assay plate. Final concentration of components in 384-well assay: 0.36 nM template, 15 nM primer, 0.29 μM ^3H-UTP (0.3 μCi), 1.6 U/μL RNAse inhibitor, 7 nM NS5B enzyme, 0.01 mg/mL BSA, 1 mM DTT, and 0.33 μg/μL beads, 20 mM Hepes buffer, pH 7.5, 2.5 mM MgCl2, 2.5 mM KCl, and 0.1% DMSO.
Reactions were allowed to proceed from 4 to 24 hours at 30° C. For 24 hour reactions, enzyme and inhibitors were pre-incubated for 24 hours before adding template and primer. Reactions were terminated by the addition of 50 mM EDTA (10 μL). After incubating for at least 15 minutes, plates were read on an Amersham LEADseeker multimodality imaging system.
IC50 values for compounds were determined using ten different [I]. IC50 values were calculated from the inhibition using the four-parameter logistic formula y=A+((B−A)/(1+((C/x)^D))), where A and B denote minimal and maximal % inhibition, respectively, C is the IC50, D is hill slope and x represents compound concentration.

[2] = test system: genotype 1b (Con-1) HCV replicon in Huh-7 cells; experiment: HCV replicon luciferase assay; assay type: cell-based; conditions: 1b replicon, Huh-7, Renilla luciferase, 3 days incubation
Procedure: The cell lines used to evaluate compounds consist of a human hepatocyte derived cell line (Huh-7) that constitutively expresses a genotype 1b (Con-1) HCV replicon or a genotype 1b (Con-1) HCV replicon with an asparagine replacing the cysteine at amino acid 316, or a genotype 2a (JFH-1) replicon, containing a Renilla luciferase reporter gene. These cells were maintained in Dulbecco's modified Eagle medium (DMEM) containing 10% FBS, 100 U/mL penicillin/streptomycin and 1.0 mg/mL G418.
HCV Replicon Luciferase Assay.
To evaluate compound efficacy, titrated compounds were transferred to sterile 384-well tissue culture treated plates, and the plates were seeded with HCV replicon cells (50 μL at a density of 2.4×10^3 cells/well) in DMEM containing 4% FBS (final DMSO concentration at 0.5%). After 3 days incubation at 37° C., cells were analyzed for Renilla Luciferase activity using the EnduRen substrate (Promega cat # E6485) according to the manufacturer's directions. Briefly, the EnduRen substrate was diluted in DMEM and then added to the plates to a final concentration of 7.5 μM. The plates were incubated for at least 1 h at 37° C. then read on a Viewlux Imager (PerkinElmer) using a luminescence program. The 50% effective concentration (EC50) was calculated using the four-parameter logistic formula noted above.

T1 sequence (Q9WMX2 2420-2992): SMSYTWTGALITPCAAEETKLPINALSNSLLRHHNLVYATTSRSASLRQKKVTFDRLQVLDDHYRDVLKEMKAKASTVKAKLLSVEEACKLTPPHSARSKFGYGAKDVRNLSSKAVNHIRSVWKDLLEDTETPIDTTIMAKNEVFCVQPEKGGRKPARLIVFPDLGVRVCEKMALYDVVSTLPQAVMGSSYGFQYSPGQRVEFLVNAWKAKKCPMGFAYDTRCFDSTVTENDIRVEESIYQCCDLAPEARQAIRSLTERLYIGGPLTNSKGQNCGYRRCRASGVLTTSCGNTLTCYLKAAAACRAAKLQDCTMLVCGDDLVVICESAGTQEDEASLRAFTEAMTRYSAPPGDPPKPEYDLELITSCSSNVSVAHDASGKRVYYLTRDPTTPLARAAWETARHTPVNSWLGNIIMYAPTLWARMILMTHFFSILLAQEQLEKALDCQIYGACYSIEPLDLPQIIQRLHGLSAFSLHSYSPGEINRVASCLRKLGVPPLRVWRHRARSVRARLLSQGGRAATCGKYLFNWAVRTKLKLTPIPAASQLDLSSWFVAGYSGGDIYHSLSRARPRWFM

| SMILES | IC50 [1] [nM] | EC50 [2] [nM] | EC50 ([2]; Hepatitis C virus, Huh-7, 72 h) [nM] |
| --- | --- | --- | --- |
| CNC(=O)c1c(-c2ccc(F)cc2)oc2ccc(-c3cc(C(=O)NC4(c5ncccn5)CC(O)C4)ccc3C)c(F)c12 (single isomer, unassigned) [Example 5a, 4-Fluoro-2-(4-fluorophenyl)-5-(5-((3-hydroxy-1-(pyrimidin-2-yl)cyclobutyl)carbamoyl)-2-methylphenyl)-N-methylbenzofuran-3-carboxamide] | 1280 | 3860 |  |
| CNC(=O)c1c(-c2ccc(F)cc2)oc2ccc(-c3cc(C(=O)NC4(c5ncccn5)CC(O)C4)ccc3C)c(F)c12 (single isomer, unassigned) [Example 5b, 4-Fluoro-2-(4-fluorophenyl)-5-(5-((3-hydroxy-1-(pyrimidin-2-yl)cyclobutyl)carbamoyl)-2-methylphenyl)-N-methylbenzofuran-3-carboxamide] | 230 | 1190 |  |
| CNC(=O)c1c(-c2ccc(F)cc2)oc2ccc(-c3cc(C(=O)NC4(c5ncccn5)CC(O)C4)cc(F)c3C)c(F)c12 (single isomer, unassigned) [Example 9a, 4-Fluoro-5-(3-fluoro-5-((3-hydroxy-1-(pyrimidin-2-yl)cyclobutyl)carbamoyl)-2-methylphenyl)-2-(4-fluorophenyl)-N-methylbenzofuran-3-carboxamide] | 570 |  | 470 |
| CNC(=O)c1c(-c2ccc(F)cc2)oc2ccc(-c3cc(C(=O)NC4(c5ncccn5)CC(O)C4)cc(F)c3C)c(F)c12 (single isomer, unassigned) [Example 9b, 4-Fluoro-5-(3-fluoro-5-((3-hydroxy-1-(pyrimidin-2-yl)cyclobutyl)carbamoyl)-2-methylphenyl)-2-(4-fluorophenyl)-N-methylbenzofuran-3-carboxamide] | 310 | 300 |  |
| CNC(=O)c1c(-c2ccc(F)cc2)oc2ccc(-c3cc(C(=O)NC4(c5ncccn5)CC(OC)C4)ccc3C)c(F)c12 (single isomer, unassigned) [Example 10a, 4-Fluoro-2-(4-fluorophenyl)-5-(5-((3-methoxy-1-(pyrimidin-2-yl)cyclobutyl)carbamoyl)-2-methylphenyl)-N-methylbenzofuran-3-carboxamide] | 60 | 30 |  |
| CNC(=O)c1c(-c2ccc(F)cc2)oc2ccc(-c3cc(C(=O)NC4(c5ncccn5)CC(OC)C4)ccc3C)c(F)c12 (single isomer, unassigned) [Example 10b, 4-Fluoro-2-(4-fluorophenyl)-5-(5-((3-methoxy-1-(pyrimidin-2-yl)cyclobutyl)carbamoyl)-2-methylphenyl)-N-methylbenzofuran-3-carboxamide] | 10 | 4.43 |  |
| CNC(=O)c1c(-c2ccc(F)cc2)oc2ccc(-c3cc(C(=O)NC4(c5ncccn5)CC(OC)C4)cc(F)c3C)c(F)c12 (single isomer, unassigned) [Example 11a, 4-Fluoro-5-(3-fluoro-5-((3-methoxy-1-(pyrimidin-2-yl)cyclobutyl)carbamoyl)-2-methylphenyl)-2-(4-fluorophenyl)-N-methylbenzofuran-3-carboxamide] | 90 | 40 |  |
| CNC(=O)c1c(-c2ccc(F)cc2)oc2ccc(-c3cc(C(=O)NC4(c5ncccn5)CC(OC)C4)cc(F)c3C)c(F)c12 (single isomer, unassigned) [Example 11b, 4-Fluoro-5-(3-fluoro-5-((3-methoxy-1-(pyrimidin-2-yl)cyclobutyl)carbamoyl)-2-methylphenyl)-2-(4-fluorophenyl)-N-methylbenzofuran-3-carboxamide] | 30 | 4.56 |  |
| CNC(=O)c1c(-c2ccc(F)cc2)oc2ccc(-c3cc(C(=O)NC4(c5ncccn5)CC(O)C4)c(OC)cc3C)c(F)c12 (single isomer, unassigned) [Example 12a, 4-Fluoro-2-(4-fluorophenyl)-5-(5-((3-hydroxy-1-(pyrimidin-2-yl)cyclobutyl)carbamoyl)-4-methoxy-2-methylphenyl)-N-methylbenzofuran-3-carboxamide] | 760 | 430 |  |
| CNC(=O)c1c(-c2ccc(F)cc2)oc2ccc(-c3cc(C(=O)NC4(c5ncccn5)CC(O)C4)c(OC)cc3C)c(F)c12 (single isomer, unassigned) [Example 12b, 4-Fluoro-2-(4-fluorophenyl)-5-(5-((3-hydroxy-1-(pyrimidin-2-yl)cyclobutyl)carbamoyl)-4-methoxy-2-methylphenyl)-N-methylbenzofuran-3-carboxamide] | 210 | 140 |  |
| CNC(=O)c1c(-c2ccc(F)cc2)oc2ccc(-c3cc(C(=O)NC4(c5ncccn5)CC(OC)C4)c(OC)cc3C)c(F)c12 (single isomer, unassigned) [Example 13a, 4-Fluoro-2-(4-fluorophenyl)-5-(4-methoxy-5-((3-methoxy-1-(pyrimidin-2-yl)cyclobutyl)carbamoyl)-2-methylphenyl)-N-methylbenzofuran-3-carboxamide] | 30 | 30 |  |
| CNC(=O)c1c(-c2ccc(F)cc2)oc2ccc(-c3cc(C(=O)NC4(c5ncccn5)CC(OC)C4)c(OC)cc3C)c(F)c12 (single isomer, unassigned) [Example 13b, 4-Fluoro-2-(4-fluorophenyl)-5-(4-methoxy-5-((3-methoxy-1-(pyrimidin-2-yl)cyclobutyl)carbamoyl)-2-methylphenyl)-N-methylbenzofuran-3-carboxamide] | 20 | 6.44 |  |
| CNC(=O)c1c(-c2ccc(F)cc2)oc2cc(CCC(F)(F)F)c(-c3cccc(C(=O)NC4(c5ncccn5)CC(OC(F)F)C4)c3)cc12 (single isomer, unassigned) [Example 29a] | 6.14 | 4.07 |  |
| CNC(=O)c1c(-c2ccc(F)cc2)oc2cc(CCC(F)(F)F)c(-c3cccc(C(=O)NC4(c5ncccn5)CC(OC(F)(F)F)C4)c3)cc12 (single isomer, unassigned) [Example 45a, 2-(4-Fluorophenyl)-N-methyl-5-(3-((1-(pyrimidin-2-yl)-3-(trifluoromethoxy)cyclobutyl)carbamoyl)phenyl)-6-(3,3,3-trifluoropropyl)benzofuran-3-carboxamide] | 20 | 20 |  |
